Measurements from article PMC6959985 (Analytical chemistry, 2019).
Where no end group is shown, it is not given here.

How the values were obtained:
KLHDC2 [1] = target: T1, KLHDC2 (Homo sapiens, UniProt Q9Y2U9)
T1 sequence (Q9Y2U9 1-406): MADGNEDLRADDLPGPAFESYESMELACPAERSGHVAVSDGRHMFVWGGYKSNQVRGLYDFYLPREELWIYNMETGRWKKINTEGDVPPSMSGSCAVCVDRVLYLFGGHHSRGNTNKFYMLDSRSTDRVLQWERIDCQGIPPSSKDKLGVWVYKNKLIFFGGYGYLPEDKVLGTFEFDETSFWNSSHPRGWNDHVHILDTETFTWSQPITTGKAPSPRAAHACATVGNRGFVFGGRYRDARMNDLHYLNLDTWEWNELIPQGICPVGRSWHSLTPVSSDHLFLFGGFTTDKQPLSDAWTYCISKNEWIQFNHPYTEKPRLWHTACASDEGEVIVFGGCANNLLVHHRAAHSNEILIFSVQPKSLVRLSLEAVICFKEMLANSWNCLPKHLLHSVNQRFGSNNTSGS

KLHDC2 [2] = target: T1, KLHDC2; assay: Luminescence-based competition assay; details: discussion of binding of both peptides; HLRGSPPPMAGG characterized in ref [19]
KLHDC2 [3] = target: T1, KLHDC2; details: recently characterized selenoprotein fragment, comparison value; ref [19]; cited from earlier work
[4] = target: T2, KLHDC2 (as used in the AlphaScreen competition assay) (human, UniProt Q9Y2U9 1-406); assay: AlphaScreen or HTRF
T2 sequence (looked up): T1 sequence (Q9Y2U9 1-406)

Row | Molecule | Identification as interacting peptide by native top-down MS (KLHDC2 [1]) | other results
1 | EKGGGSGGG | identified using native top-down MS | 
2 | HLRGSPPPMAGG |  | Binding to KLHDC2 (KLHDC2 [2]): extremely tight binding; IC50 (KLHDC2 [3]): 3.4 nM
3 | ASDEGEVIVFGG [ASDEGEVIVFGG] | identified using native top-down MS | 
4 | GGGSGGG | identified using native top-down MS | 
5 | ASDEGEVIVFGG [synthesized peptide F (ASDEGEVIVFGG)] |  | IC50 [4]: 5.3 nM
